Experimental data: US5902583A, “Genetic induction of receptors for targeted radiotherapy” (priority 1997, dated 1999)
Entries after “also recorded” stand apart in the source; their conditions may differ. Like-named read-outs stand apart in the source and are kept apart here.

How the values were obtained:
[1] = test system: SSTR2; conditions: cited from earlier work
[2] = native somatostatin; cited from earlier work
[3] = test system: human IL-4 receptor; conditions: murine ligand; cited from earlier work
[4] = test system: SKOV3.ip1 tumors expressing mGRPr; assay: Biodistribution and pharmacokinetics of radiolabeled bombesin analogue in mice bearing i.p. SKOV3.ip1 tumors infected with AdCMVGRPr; type: in vivo, human SKOV3.ip1 tumors in athymic nude mice
Description: All biodistribution studies were performed in female Balb/c athymic nude mice obtained at 4-5 weeks of age from Frederick Research Laboratory (Frederick, Md.). The peptide mIP-Des-Met-bombesin(7-13)NH2 was synthesized using solid phase peptide synthesis at the UAB Comprehensive Cancer Center Peptide Synthesis and Analysis Shared Facility and has been described elsewhere. Mice were injected i.p. with 2×10^7 SKOV3.ip1 human ovarian carcinoma cells. Five days following cell inoculation, mice were injected i.p. with 1×10^9 pfu of a recombinant adenoviral vector expressing mGRPr. Animals were then injected i.p. 48 hours later with 2 μCi of [^125 I]-mIP bombesin. Mice were sacrificed at 0.5, 2, 5, 15, 30 min and 1, 4, 8, 12 and 24 hours following peptide injection (n=4-10/group) and the following organs were dissected: blood, heart, lungs, liver, stomach, small intestine, spleen, kidney, skin, bone, muscle, uterus, peritoneal lining and thyroid. In addition, tumor nodules were removed from each mouse. All organs, and tumors were weighed and the activity counted in a gamma counter. The % ID/g for each tissue was calculated except for the thyroid in which only the % ID was determined.
Descriptive statistics were calculated to examine the distribution and variation of time concentration of radiolabeled antibody and peptide, and tissue to blood ratio data (means and standard deviations). Means at each specific time point were calculated from multiple mice data for both tissue concentration and tissue to blood ratios. Mean concentration data (% ID/g) over time was used for pharmacokinetical modeling. The pharmacokinetical parameters were estimated by using the NLIN procedure of Statistical Analysis System programs. Selection of models was based on comparison of Akaike's Information Criterion, the minimization of the model's mean squared error and standard error of the estimated model parameters, and the graphical diagnostics of the model fit.
Four different pharmacokinetic models, including one and two compartment elimination models along with one and two-compartment models with an absorption phase were required to fit the time concentration curves for the peptide. […] For each of these, the elimination t1/2 was calculated along with Cmax and AUC. A one-compartment model with an absorption phase was determined to be the best model for abdominal lining and muscle data. For each of these, the elimination t1/2 values for each compartment were calculated along with Cmax and AUC. A two-compartment model with an absorption phase was the best model for blood, kidney, and small intestine data. For each of these, elimination t1/2 values for each compartment and the absorption t1/2 value was calculated along with Cmax, Tmax and AUC.

[5] = test system: mGRPr expressing cells; assay: Internalization and intracellular retention in mGRPr expressing cells; type: cell-based, murine
[6] = test system: mGRPr; assay: Binding to murine GRP receptor
[7] = test system: murine IL-4 receptor; conditions: cited from earlier work
[8] = test system: IL-4 receptor; assay: Radiolabeled IL-4 binding after adenovirus-polylysine-DNA transduction of IL-4 receptor; conditions: adenovirus-polylysine-DNA conjugates
[9] = test system: murine gastrin releasing peptide receptor (mGRP-R); assay: Radiolabeled bombesin binding after adenovirus-polylysine-mediated transfection of GRPr; conditions: AdpL, versus uninfected controls
From the text: Next, gene mediated expression of receptors was applied in the context of inducing expression of a receptor that could be targeted with a radiolabeled peptide and thus employed the gene encoding the murine gastrin releasing peptide receptor (mGRP-R). The first technique utilized the methodology of an adenovirus-polylysine-mediated transfection (AdpL) to accomplish transient gene expression of mGRP-R in human lung cancer cells.

C[C@@H](O)[C@@H]1NC(=O)[C@H](CCCCN)NC(=O)[C@@H](Cc2c[nH]c3ccccc23)NC(=O)[C@H](Cc2ccccc2)NC(=O)[C@@H](NC(=O)[C@H](N)Cc2ccccc2)CSSC[C@@H](C(=O)N[C@H](CO)[C@@H](C)O)NC1=O [Octreotide]
binding to SSTR2 [1]: binds with high affinity

C[C@H](N)C(=O)NCC(=O)N[C@H]1CSSC[C@@H](C(=O)O)NC(=O)[C@H](CO)NC(=O)[C@H]([C@@H](C)O)NC(=O)[C@H](Cc2ccccc2)NC(=O)[C@H]([C@@H](C)O)NC(=O)[C@H](CCCCN)NC(=O)[C@H](Cc2c[nH]c3ccccc23)NC(=O)[C@H](Cc2ccccc2)NC(=O)[C@H](Cc2ccccc2)NC(=O)[C@H](CC(N)=O)NC(=O)[C@H](CCCCN)NC1=O [Somatostatin]
plasma half-life [2]: minutes

Murine IL-4: glycoprotein with an approximate molecular weight of 19 kD
binding to the human receptor [3]: does not exhibit binding

[^125 I]-mIP-Des-Met^14 -bombesin(7-13)NH2 [[^125 I]-mIP-bombesin]
concentration in tumor (highest) ([4]; 30 sec after injection, 0.5 min): 33.6±18.2 % ID/g
tumor to blood ratio relative to antibody ([4]; 30 sec, versus e21): 24.8 fold
tumor localization at 4 hours post injection versus [^125 I]-Tyr-bombesin ([4]; 4 hours post injection): much greater
concentration in tumor ([4]; 24 hours after injection): 2.5±2.8 % ID/g
tumor to blood ratio relative to antibody ([4]; 24 hours, versus e21): 15.4 fold
AUC ([4]; abdominal lining): 160.9 percent ID × h/g
Cmax ([4]; abdominal lining): 47.7 percent ID/g
t1/2α ([4]; abdominal lining): 0.1 h
t1/2β ([4]; abdominal lining): 6.5 h
AUC ([4]; blood): 8.0 percent ID × h/g
Cmax ([4]; blood): 1.5 percent ID/g
Tmax ([4]; blood): 0.6 h
t1/2α ([4]; blood): 0.8 h
t1/2β ([4]; blood): 6.7 h
AUC ([4]; bone): 12.8 percent ID × h/g
Cmax ([4]; bone): 1.1 percent ID/g
t1/2β ([4]; bone): 7.9 h
AUC ([4]; heart): 8.3 percent ID × h/g
Cmax ([4]; heart): 0.9 percent ID/g
t1/2β ([4]; heart): 6.6 h
AUC ([4]; kidney): 44.8 percent ID × h/g
Cmax ([4]; kidney): 15.3 percent ID/g
Tmax ([4]; kidney): 0.5 h
t1/2α ([4]; kidney): 0.4 h
t1/2β ([4]; kidney): 4.7 h
tumor to blood ratio ([4]; level after drop from initial peak and rise): about 50
AUC ([4]; liver): 49.2 percent ID × h/g
Cmax ([4]; liver): 9.8 percent ID/g
t1/2β ([4]; liver): 3.5 h
AUC ([4]; lung): 7.6 percent ID × h/g
Cmax ([4]; lung): 1.3 percent ID/g
Tmax ([4]; lung): 0.05 h
t1/2β ([4]; lung): 4.1 h
AUC ([4]; muscle): 12.4 percent ID × h/g
Cmax ([4]; muscle): 3.6 percent ID/g
t1/2α ([4]; muscle): 0.6 h
t1/2β ([4]; muscle): 7.7 h
AUC ([4]; skin): 5.9 percent ID × h/g
Cmax ([4]; skin): 1.0 percent ID/g
Tmax ([4]; skin): 0.4 h
t1/2β ([4]; skin): 3.7 h
AUC ([4]; small intestine): 112 percent ID × h/g
Cmax ([4]; small intestine): 41.7 percent ID/g
Tmax ([4]; small intestine): 0.3 h
t1/2α ([4]; small intestine): 0.6 h
t1/2β ([4]; small intestine): 8.3 h
AUC ([4]; spleen): 71.7 percent ID × h/g
Cmax ([4]; spleen): 10.9 percent ID/g
t1/2β ([4]; spleen): 4.6 h
AUC ([4]; stomach): 172.3 percent ID × h/g
Cmax ([4]; stomach): 10.2 percent ID/g
Tmax ([4]; stomach): 0.05 h
t1/2β ([4]; stomach): 11.7 h
AUC ([4]; tumor): 193.1 percent ID × h/g
Cmax ([4]; tumor): 25.6 percent ID/g
t1/2β (clearance half-life) ([4]; tumor): 5.2 h
AUC ([4]; uterus): 182.8 percent ID × h/g
Cmax ([4]; uterus): 29.2 percent ID/g
t1/2β ([4]; uterus): 4.3 h
peak tumor to blood ratio, bombesin analogue relative to antibody ([4]; versus e21): 12.6 fold
internalization versus [^125 I]-Tyr-bombesin [5]: higher internalization
intracellular retention versus [^125 I]-Tyr-bombesin [5]: longer intracellular retention
intracellular retention versus [^125 I]-Tyr-bombesin ([5]; listed as modified seven amino acid analogue of bombesin): longer retention time within cells
binding to mGRPr [6]: high affinity binding

^125 I-labeled IL-4: ^125 I-labeled IL-4
Ka ([7]; ^125 I-IL-4, transduced COS-7 cells): 10^9 -10^10 M^-1
radiolabeled IL-4 binding to transduced cells [8]: specific binding

^125 I-labeled bombesin: ^125 I-labeled bombesin
radiolabeled bombesin binding to transduced cells [9]: specific binding; also recorded: successfully demonstrated

human IL-4: human IL-4
binding to the murine receptor ([7]; human IL-4): does not exhibit binding
